Where “and” joins values, the source holds several entries; their conditions need not be identical. Identical values can stand only once. Marks after values point to notes of the source that are not given here. Starred links: 1 amine or outer side, 2 acyl side, 3 side chain; linkers in the order of their positions; H or OH if unused. Positions of bridges follow the written chain, without caps; N, C: chain ends. Non-standard residues stand in square brackets, D forms with d. Residues, ends and D or L forms follow the SMILES beside them. *: point of attachment. X2 = Cc1sc(C(=O)[C@@H]2CCCN2[*:2])cc1C1=C(c2cc(C(=O)[*:1])sc2C)CCC1; Leu(3R-OH) = CC(C)[C@@H](O)[C@H](N)C(=O)O; NMeL = CN[C@@H](CC(C)C)C(=O)O; Isobutyryl = CC(C)C(=O)*; Orn = NCCC[C@H](N)C(=O)O; Dab = NCC[C@H](N)C(=O)O
Legend:
D. rerio embryos [1] = assay: D. rerio embryotoxicity assay, direct application of ring-open photoform; assay type: in vivo, Danio rerio; conditions: direct application of 1 or ring-open photoform, zebrafish embryos at 3 dpf, final DMSO 0.2%, ambient light, value ± STD; for LD50 (open)^1h: 1 h incubation, 12–15 or 18–20 embryos; for LD50 (open)^3h: 3 h incubation; for LD50 (open)^24h: 24 h incubation
Description: (§1) To establish the assay for screening the photoswitchable peptides, we first studied the toxicity of our prototype 2 by varying the assay conditions. The parent peptide GS 1 was used as a control. […] We measured the doses causing the death of 50% embryos (LD50). We tested two different assay variations: in one version, the LD50(open) was determined after direct application of 1 or of the ring-open form of 2. In the other variant, the photoswitchable peptide was applied in the ring-closed photoform in the darkness, its LD50(closed) was recorded, and then in situ illumination (“photoactivation”) was applied to switch into the ring-open photoform and obtain the respective LD50(opened) values (see Figure 2 for the study design and the killing curves).
(§2) Figure 2 Two versions of the D. rerio embryotoxicity assay for DAE-modified peptides: timelines, peptide photostates, ages of larvae, and definitions of the measured characteristics. (A) Direct application of the non-photoswitchable parent GS 1 or of the ring-open photoform of our prototype 2, and the corresponding killing curves for 1 (C, top, black) and 2 (C, bottom, red). (B) “Photoactivation” assay: initial application of the ring-closed photoform, incubation in darkness, followed by in situ photoconversion into the ring-open(ed) photoform, with the corresponding killing curves for 1 (D, top) and 2 (D, bottom, green for ring-closed, red for ring-open isomers). The latter panel illustrates the “phototherapeutic safety window” (green arrow) as the difference in toxicity between the ring-closed and the ring-open isomers upon photoactivation.
(§3) Each time, 12–15 or 18–20 zebrafish embryos at 3 dpf were treated by applying the corresponding peptide dissolved in dimethyl sulfoxide (final dimethyl sulfoxide concentration was 0.2%). Double-concentrated peptide stock solutions (64–512 µg/mL) were prepared by weighing lyophilized peptides, dissolving in 10% dimethyl sulfoxide and constructing two-fold dilution series with ten–eleven dilution steps. In the photoconversion experiments, in order to prevent spontaneous photoswitching of the ring-closed peptides by vis light, zebrafish embryos and peptides were kept in the dark before the first readout, and the vials were sealed to avoid evaporation of the embryonic medium (E3) at prolonged incubation times. After the first screen, without exchanging any solution, the vials with embryos and ring-closed photoforms were exposed to intense illumination for 10 min (LUMATEC Superlite 410 light source, λ = 570 nm, irradiance approximately 20 mW/cm^2). Mortality was then determined under ambient light conditions at 1 h and 24 h after the illumination procedure.

D. rerio embryos [2] = assay: D. rerio embryotoxicity "photoactivation" assay (ring-closed photoform in darkness, then in situ photoconversion); assay type: in vivo, Danio rerio; conditions: for LD50 (opened)^1h / LD50 (opened)^24h: after 24 h with ring-closed form in dark, in situ illumination 10 min, λ = 570 nm, approx. 20 mW/cm^2; for LD50 (opened)^1h: mortality 1 h after illumination, embryos 4 dpf; for LD50 (opened)^24h: mortality 24 h after illumination, embryos 5 dpf at readout; for LD50(closed)^24h/LD50(open)^24h ratio: phototherapeutic safety window, ring-closed 24 h LD50 (dark) divided by ring-open 24 h LD50 (direct application); for LD50 (closed)^24h: ring-closed photoform applied to embryos at 3 dpf, 24 h in the dark
Description: as §1, §2, §3

[3] = sealed vials, E3 medium, 0.2% DMSO, value ± STD

Row | SMILES | LD50 (open)^1h (D. rerio embryos [1]) [µg/mL] | LD50 (open)^3h (D. rerio embryos [1]) [µg/mL] | LD50 (open)^24h (D. rerio embryos [1]) [µg/mL] | LD50 (opened)^1h (D. rerio embryos [2]; value ± STD) [µg/mL] | LD50 (opened)^24h (D. rerio embryos [2]; value ± STD) [µg/mL] | LD50(closed)^24h/LD50(open)^24h ratio (D. rerio embryos [2]) | LD50 (closed)^24h (D. rerio embryos [2]; [3]) [µg/mL] | LD50 (closed)^24h (D. rerio embryos [2]; measurement performed once, STD not calculated)
1 | Cc1sc2cc1C1=C(CCC1)c1cc(sc1C)C(=O)[C@@H]1CCCN1C(=O)[C@H](C(C)C)NC(=O)[C@H](CCCN)NC(=O)[C@H](C(C)C)NC(=O)[C@@H]1CCCN1C(=O)[C@@H](Cc1ccccc1)NC(=O)[C@H](C(C)C)NC(=O)[C@H](CCCN)NC(=O)[C@H](CCNC(=O)C(C)C)NC2=O [Peptide 8] ([Dab](Isobutyryl)[Orn]V[dF]PV[Orn]V; linker N-C via X2) | 12.0 ± 0.8 | 5.7 ± 0.4 | 3.9 ± 1.5 | 9.6 ± 5.6 | 3.0 ± 2.7 | 121 and 121.2 |  | 
2 | CC[C@H](C)[C@@H]1NC(=O)c2cc(c(C)s2)C2=C(CCC2)c2cc(sc2C)C(=O)[C@@H]2CCCN2C(=O)[C@H](CC(C)C)NC(=O)[C@H](CCCN)NC(=O)[C@H]([C@@H](C)CC)NC(=O)[C@@H]2CCCN2C(=O)[C@H]2CCCN2C(=O)[C@H](CC(C)C)NC(=O)[C@H](CCCN)NC1=O [Peptide 9] (I[Orn]L[dP]PI[Orn]L; linker N-C via X2) | 2.0 ± 1.1 | 2.1 ± 0.8 | 1.6 ± 0.3 | 2.2 ± 0.5 | 0.8 ± 0.1 | 5.7 | 9.1 ± 2.7 | 
3 | CC[C@H](C)[C@@H]1NC(=O)c2cc(c(C)s2)C2=C(CCC2)c2cc(sc2C)C(=O)[C@@H]2CCCN2C(=O)[C@H]([C@@H](C)CC)NC(=O)[C@H](CCCN)NC(=O)[C@H](CC(C)C)NC(=O)[C@H](CC(C)C)N(C)C(=O)[C@@H](Cc2ccccc2)NC(=O)[C@H]([C@@H](C)CC)NC(=O)[C@H](CCCN)NC1=O [Peptide 10] (I[Orn]I[dF][NMeL]L[Orn]I; linker N-C via X2) | 1.3 ± 1.5 | 1.0 ± 0.6 | 1.0 ± 0.6 | 2.2 ± 1.0 | 1.3 ± 1.5 | 9.5 | 9.5 ± 0.1 | 
4 | Cc1sc2cc1C1=C(CCC1)c1cc(sc1C)C(=O)[C@@H]1CCCN1C(=O)[C@H](C(C)C)NC(=O)[C@H](CCCN)NC(=O)[C@H](C(C)C)NC(=O)[C@@H]1CCCN1C(=O)[C@@H](Cc1ccccc1)NC(=O)[C@H](C(C)C)NC(=O)[C@H](CCCN)NC(=O)[C@H]([C@H](O)C(C)C)NC2=O [Peptide 12] ([Leu(3R-OH)][Orn]V[dF]PV[Orn]V; linker N-C via X2) | 9.2 ± 1.1 | 6.7 ± 0.4 | 3.6 ± 0.5 | 6.2 ± 0.0 | 2.1 ± 1.0 | 21.4 | 77.0 ± 19.4 | 
5 | Cc1sc2cc1C1=C(CCC1)c1cc(sc1C)C(=O)[C@@H]1CCCN1C(=O)[C@H](C(C)C)NC(=O)[C@H](CCCN)NC(=O)[C@H]([C@H](O)C(C)C)NC(=O)[C@@H]1CCCN1C(=O)[C@@H](Cc1ccccc1)NC(=O)[C@H](C(C)C)NC(=O)[C@H](CCCN)NC(=O)[C@H](C(C)C)NC2=O [Peptide 13] (V[Orn]V[dF]P[Leu(3R-OH)][Orn]V; linker N-C via X2) | 4.8 ± 3.8 | 4.3 ± 3.8 | 2.2 ± 1.0 | 6.4 ± 0.4 | 3.4 ± 0.5 | 20.5 |  | 45.0^b µg/mL
6 | Cc1sc2cc1C1=C(CCC1)c1cc(sc1C)C(=O)[C@@H]1CCCN1C(=O)[C@H]([C@H](O)C(C)C)NC(=O)[C@H](CCCN)NC(=O)[C@H](C(C)C)NC(=O)[C@@H]1CCCN1C(=O)[C@@H](Cc1ccccc1)NC(=O)[C@H](C(C)C)NC(=O)[C@H](CCCN)NC(=O)[C@H](C(C)C)NC2=O [Peptide 14] | 8.1 ± 2.0 | 6.2 ± 0.7 | 2.0 ± 0.0 | 9.1 ± 4.2 | 4.6 ± 2.0 | 25.2 | 50.4 ± 27.2 | 
7 | Cc1sc2cc1C1=C(CCC1)c1cc(sc1C)C(=O)[C@@H]1CCCN1C(=O)[C@H](C(C)C)NC(=O)[C@H](CCCN)NC(=O)[C@H]([C@H](O)C(C)C)NC(=O)[C@@H]1CCCN1C(=O)[C@@H](Cc1ccccc1)NC(=O)[C@H](C(C)C)NC(=O)[C@H](CCCN)NC(=O)[C@H]([C@H](O)C(C)C)NC2=O [Peptide 15] ([Leu(3R-OH)][Orn]V[dF]P[Leu(3R-OH)][Orn]V; linker N-C via X2) | 36.5 ± 2.1 | 14.1 ± 6.0 | 7.2 ± 3.8 | 22.9 ± 0.2 | 7.2 ± 0.7 | 7.8 | 56.1 ± 12.2 | 
8 | Cc1sc2cc1C1=C(CCC1)c1cc(sc1C)C(=O)[C@@H]1CCCN1C(=O)[C@H](CC(C)C)NC(=O)[C@H](CCCCN)NC(=O)[C@H](C(C)C)NC(=O)[C@H](CCCCN)NC(=O)[C@H](CC(C)C)NC(=O)[C@@H]1CCCN1C(=O)[C@@H](Cc1ccccc1)NC(=O)[C@H](C(C)C)NC(=O)[C@H](CCCCN)NC(=O)[C@H](CC(C)C)NC(=O)[C@H](CCCCN)NC(=O)[C@H](C(C)C)NC2=O [Peptide 16] (VKLKV[dF]PLKVKL; linker N-C via X2) | 3.1 ± 1.0 | 3.1 ± 1.0 | 1.6 ± 0.0 | 5.6 ± 0.5 | 5.2 ± 0.5 | 3.8 | 6.0 ± 0.1 | 
9 | Cc1sc2cc1C1=C(CCC1)c1cc(sc1C)C(=O)[C@@H]1CCCN1C(=O)[C@H](C(C)C)NC(=O)[C@H](CCCCN)NC(=O)[C@H](C(C)C)NC(=O)[C@@H](CCCCN)NC(=O)[C@H](CC(C)C)NC(=O)[C@@H]1CCCN1C(=O)[C@@H](Cc1ccccc1)NC(=O)[C@H](C(C)C)NC(=O)[C@H](CCCCN)NC(=O)[C@H](CC(C)C)NC(=O)[C@H](CCCCN)NC(=O)[C@H](C(C)C)NC2=O [Peptide 17] (VKLKV[dF]PL[dK]VKV; linker N-C via X2) | 10.5 ± 5.8 | 10.5 ± 5.8 | 3.2 ± 0.2 | 9.9 ± 0.1 | 9.4 ± 0.7 | 3.1 | 9.9 ± 0.1 | 
